Reference: US7994160B2, “Pyridazine compounds as glycogen synthase kinase 3 inhibitors” (Abbott GmbH & Co. KG, priority 2005, dated 2011)

Key:
[1] = target: human Glycogen Synthase Kinase-3 beta (hGSK-3β) (Homo sapiens, UniProt P49841); experiment: Biochemical hGSK-3Beta assay (33P-ATP phosphorylation of biotinylated peptide substrate); conditions: 10 μM ATP, 30 minutes at room temperature, read-out: GSK-3β IC50
Description: Methods—Biochemical hGSK-3Beta Assay
Compounds were tested for their ability to inhibit human Glycogen Synthase Kinase-3 beta (hGSK-3β) to phosphorylate biotin-[…](pS)EDEEE. Compounds were incubated with 0.5 μCi 33P-ATP, 10 μM ATP, 0.0125 U hGSK-3β (Upstate cell signaling solutions) and 1 μM substrate (biotin-[…](pS)EDEEE) in 50 mM HEPES, 10 mM MgCl2, […], 1 mM DTT, 0.0075% Triton, 2% DMSO (total volume 50 μL) for 30 minutes at room temperature. The incubation was stopped by addition of an equal volume of 100 mM EDTA, 4M NaCl. 80 μL of this mixture was added to streptavidin-coated Flashplates (PerkinElmer). Following a wash step, 33P incorporation was quantified on a MicroBeta microplate liquid scintillation counter (PerkinElmer). IC50's were determined by fitting a sigmoidal dose-response curve to the counts obtained at the different concentrations in GraphPad Prism.

[2] = tested on: β-catenin-modulated gene transcription; experiment: β-Catenin reporter-gene assay (LEF/TCF TOPFLASH/FOPFLASH luciferase); format: cell-based; conditions: human neuroblastoma cells, 24 h; symbols +/++/+++ not defined
Description: Methods—β-Catenin Reporter-Gene Assay
Compounds were tested for their ability to modulate β-catenin-modulated gene transcription in a LEF/TCF (T-cell factor) reporter gene assay. […] human neuroblastoma cells were transiently transfected with 80 ng/well TOPFLASH plasmid (Up-state cell signaling solutions) containing two sets of three copies of the TCF binding site upstream of the Thymidine Kinase minimal promoter and firefly Luciferase open reading frame or with 80 ng/well FOPFLASH plasmid (Upstate cell signaling solutions) containing three copies of a mutated TCF binding site upstream of the Thymidine Kinase minimal promoter and firefly Luciferase open reading frame. In addition all cells were transiently transfected with the 20 ng/well pRL-TK plasmid (Promega) containing the herpes simplex virus thymidine kinase promoter to provide low to moderate levels of Renilla Luciferase expression. Transfection medium was exchanged for serum-free medium containing the test substance and incubated for 24 h at 37 degreed C. The incubation was stopped and quantified using the Dual Glo Luciferase Assay (Promega) as indicated and quantified on a Pherastar reader (BMG).
Firefly Luciferase activity was normalised for Renilla Luciferase activity per well. Subsequently, the normalised TOPFLASH response was compared to the normalised FOPFLASH response, thus giving the LEF/TCF specific signal. […]

human Glycogen Synthase Kinase-3 beta (hGSK-3β), sequence (P49841 whole entry): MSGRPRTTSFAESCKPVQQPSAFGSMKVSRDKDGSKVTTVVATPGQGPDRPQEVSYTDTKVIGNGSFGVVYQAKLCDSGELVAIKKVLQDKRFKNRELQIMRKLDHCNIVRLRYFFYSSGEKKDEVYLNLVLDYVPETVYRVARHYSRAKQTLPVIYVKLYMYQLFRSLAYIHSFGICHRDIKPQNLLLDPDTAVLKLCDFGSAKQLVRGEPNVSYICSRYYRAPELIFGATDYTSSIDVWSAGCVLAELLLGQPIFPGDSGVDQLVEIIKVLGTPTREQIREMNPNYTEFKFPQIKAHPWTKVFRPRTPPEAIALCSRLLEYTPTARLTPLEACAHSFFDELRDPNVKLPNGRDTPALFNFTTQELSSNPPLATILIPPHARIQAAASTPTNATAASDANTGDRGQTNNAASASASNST

Structure (SMILES)	IC50 [1] [nM]	Cellular Activity in GSK-3β TOPFLASH assay [2]
O=C1Nc2cc([N+](=O)[O-])ccc2Nc2nnc(Cl)cc21 [Example 4, 2-Chloro-8-nitro-5,10-dihydro-3,4,5,10-tetraaza-dibenzo[a,d]cyclohepten-11-one]	625	
NC(=O)c1cccc2c1Nc1ccccc1C(=O)N2 [Example 6, 11-Oxo-10,11-dihydro-5H-dibenzo[b,e][1,4]diazepine-6-carboxylic acid amide, reference compound]	57000	INACTIVE
O=C1Nc2ncccc2Nc2nnc(Cl)cc21 [Example 7, 8-Chloro-5,10-dihydro-1,5,6,7,11-pentaaza-dibenzo[a,d]cyclohepten-11-one]	101	
C=Cc1cc2c(nn1)Nc1ccccc1NC2=O [Example 10, 2-Vinyl-5,10-dihydro-3,4,5,10-tetraaza-dibenzo[a,d]cyclohepten-11-one]	45	
